Where “and” joins values, the source holds several entries; their conditions need not be identical. Equal entries are not always repeated.
Legend:
Format in all cases: in vivo, human
Conditions in all cases: individual patient
[1] = Tumor drug concentration in tumor needle biopsy at day 17 (LC-MS-MS)
Description: (§1) All tissue samples were immediately snap frozen (within 1 min) in liquid nitrogen and cryopreserved at −80 °C until the day of analysis.
(§2) Tissue biopsies were weighed accurately before analysis. Tissue homogenate was prepared by using a mechanical homogenizer. The tumor tissue was homogenized with the precellys lysing kit (bertin instruments®) in the Roche MagNA lyzer®. […] Tissue homogenate samples were directly analyzed.
(§3) Supplementary data S2 – Methods (Details)
(§4) samples; using a validated liquid chromatography–tandem mass spectrometry (LC-MS-MS).
(§5) The system consisted of an Acquity H‐Class UPLC system, coupled to a Xevo TQ‐S micro
(§6) tandem mass spectrometer. […]

[2] = Plasma pharmacokinetics of high-dose intermittent sunitinib (LC-MS-MS, NONMEM)
Description: Study pharmacokinetic assessment in plasma: Ethylenediaminetetraacetic acid (EDTA) blood was collected pretreatment and subsequently at multiple time points in all patients (0, 2, 4, 6, 8, 10, and 24 h post-dose on day 1 for both time schedules and thereafter at days 3, 8, 10, 15, 17, and 22 for the once weekly schedule and at days 3, 15, 17, and 29 for the once every 2 weeks schedule). All samples were centrifuged within 1 h after collection at 2000 g for 10 min (at 4 degrees Celsius (°C)), plasma was separated and stored at −80 °C until the day of analysis.
Since there is no evidence for the exact relationship between plasma and tumor concentrations, we chose to use the concentration–time data calculated by NONMEM for Cmax, the average concentration over time (Caverage) and the trough concentrations just before the next dose was administered (Ctrough) based on rich PK-data of each individual patient. […] Inter-occasion variability in bioavailability and absorption duration were allowed in the model. The control stream of the final model and the goodness-of-fit plots are supplied in the Supplementary Material (Supplementary Data S3). The developed model was used to derive the individual predictions for the Cmax, Caverage, and Ctrough. SUM concentrations were calculated.
as §3, §4, §5, §6

[3] = Skin drug concentration in skin biopsy at day 17 (LC-MS-MS)
Description: as §1, §2, §3, §4, §5, §6

Tumor - N-desethyl Sunitinib concentration ([1]; sunitinib 400 mg O2W): 400 µg/L | Tumor - N-desethyl Sunitinib concentration ([1]; sunitinib 800 mg O2W): 330 µg/L | Cmax plasma - N-desethyl Sunitinib concentration ([2]; sunitinib 200 mg O1W): 68 ng/mL and 40 ng/mL and 58 ng/mL | Cmax plasma - N-desethyl Sunitinib concentration ([2]; sunitinib 300 mg O2W): 29 ng/mL and 7.49 ng/mL and 27 ng/mL | Cmax plasma - N-desethyl Sunitinib concentration ([2]; sunitinib 500 mg O2W): 32 ng/mL and 29 ng/mL and 51 ng/mL | Cmax plasma - N-desethyl Sunitinib concentration ([2]; sunitinib 600 mg O2W): 45 ng/mL and 41 ng/mL | Skin - N-desethyl Sunitinib concentration ([3]; sunitinib 300 mg O2W): 124 µg/L and 218 µg/L | Skin - N-desethyl Sunitinib concentration ([3]; sunitinib 400 mg O1W): 406 µg/L | Skin - N-desethyl Sunitinib concentration ([3]; sunitinib 800 mg O2W): 194 µg/L
SMILES: CCNCCNC(=O)c1c(C)[nH]c(/C=C2\C(=O)Nc3ccc(F)cc32)c1C [N-desethyl sunitinib]
Tumor - N-desethyl Sunitinib concentration ([1]; sunitinib 300 mg O1W): 589 µg/L and 12025 µg/L and 812 µg/L and 1101 µg/L and 1077 µg/L and 2934 µg/L and 6513 µg/L and 22945 µg/L and 578 µg/L and 10356 µg/L and 342 µg/L and 767 µg/L | Tumor - N-desethyl Sunitinib concentration ([1]; sunitinib 700 mg O2W): 13436 µg/L and 2500 µg/L and 19730 µg/L and 2387 µg/L and 4534 µg/L and 1675 µg/L and 17843 µg/L and 555 µg/L | Cmax plasma - N-desethyl Sunitinib concentration ([2]; sunitinib 300 mg O1W): 29 ng/mL and 34 ng/mL and 28 ng/mL and 22 ng/mL and 51 ng/mL and 15 ng/mL and 94 ng/mL and 32 ng/mL and 21 ng/mL and 31 ng/mL and 33 ng/mL and 23 ng/mL and 27 ng/mL and 43 ng/mL and 210 ng/mL and 63 ng/mL and 14 ng/mL | Cmax plasma - N-desethyl Sunitinib concentration ([2]; sunitinib 400 mg O1W): 15 ng/mL and 26 ng/mL and 9.48 ng/mL and 22 ng/mL and 28 ng/mL and 25 ng/mL and 6.66 ng/mL and 44 ng/mL and 154 ng/mL and 57 ng/mL | Cmax plasma - N-desethyl Sunitinib concentration ([2]; sunitinib 400 mg O2W): 33 ng/mL and 31 ng/mL and 28 ng/mL and 34 ng/mL | Cmax plasma - N-desethyl Sunitinib concentration ([2]; sunitinib 700 mg O2W): 26 ng/mL and 52 ng/mL and 24 ng/mL and 65 ng/mL and 55 ng/mL and 51 ng/mL and 21 ng/mL and 30 ng/mL and 40 ng/mL and 59 ng/mL and 35 ng/mL and 48 ng/mL and 36 ng/mL and 34 ng/mL and 23 ng/mL and 84 ng/mL and 164 ng/mL and 150 ng/mL and 85 ng/mL and 68 ng/mL and 54 ng/mL and 76 ng/mL and 125 ng/mL and 128 ng/mL and 200 ng/mL and 57 ng/mL | Cmax plasma - N-desethyl Sunitinib concentration ([2]; sunitinib 800 mg O2W): 55 ng/mL and 84 ng/mL and 13 ng/mL and 14 ng/mL and 29 ng/mL | Skin - N-desethyl Sunitinib concentration ([3]; sunitinib 300 mg O1W): 1288 µg/L and 1388 µg/L and 267 µg/L and 1355 µg/L and 529 µg/L and 224 µg/L and 648 µg/L and 865 µg/L and 1498 µg/L and 621 µg/L and 1842 µg/L and 2193 µg/L and 488 µg/L | Skin - N-desethyl Sunitinib concentration ([3]; sunitinib 700 mg O2W): 2743 µg/L and 221 µg/L and 168 µg/L and 987 µg/L and 5179 µg/L and 572 µg/L and 425 µg/L and 429 µg/L and 380 µg/L and 326 µg/L and 5652 µg/L and 1279 µg/L and 460 µg/L and 1021 µg/L and 1060 µg/L and 896 µg/L
